Assay results taken from article PMC8746441, “Design, Synthesis and Preclinical Assessment of ^99mTc-iFAP for In Vivo Fibroblast Activation Protein (FAP) Imaging” (Molecules, 2022).

Legend:
[1] = system: N30 (primary human stromal endometrial cells, FAP positive); experiment: Cellular uptake and internalization; type: cell-based; settings: 1 h, 37 °C
Experimental: The ^99mTc-iFAP uptake and internalization by N30 (FAP +) and fibroblast (FAP −) cells were determined by using 4 × 10^5 cells/500 µL of PBS in test tubes (n = 6). Both cells lines were incubated for 1 h at 37 °C with 10 µL of ^99mTc-iFAP (37 kBq, 0.4 nmol iFAP). After incubation, three washes with 500 µL of PBS were performed by centrifugation (700 g/5 min). By using a crystal scintillation (NaI(Tl)) well-type detector (MNL Inc., Littleton, CO, USA), the radioactivity in the cell pellet was evaluated. A standard volume with the initial activity was used to represent 100%, and the cell uptake activity was assessed with regard to this value. For the evaluation of internalization, the cell pellets were treated at 37 °C for 5 min with 500 µL of an acid glycine solution (0.1 M glycine, pH adjusted to 2.8 with HCl), and centrifuged (700 g/5 min). The cell pellet was incubated with 1 M NaOH for 5 min and centrifuged (700 g/5 min). The radioactivity of the supernatant was calculated as the percentage of internalization with regard to the initial activity of the standard volume as mentioned above.

[2] = Human serum stability and protein binding (size-exclusion radio-HPLC); type: in vitro ADME
Experimental: The ^99mTc-iFAP (37 MBq, 100 µL, 14 nmol) was incubated at 37 °C with 500 µL of human serum (IST-909c certified human serum sample, Sigma-Aldrich) and diluted in 0.5 mL of a 0.9% NaCl solution. Twenty microliters of the mixture were sampled at 30 min, 3 and 24 h for size-exclusion radio-HPLC analysis using a ProteinPak 300SW Waters column and 0.01M PBS as the mobile phase (1 mL/min). The percentage of recovery (quantification of the radioactivity recovered from the HPLC column) was determined by injecting 20 µL of the ^99mTc-iFAP sample into the HPLC system and 20 µL into a 50 mL volumetric flask, which was filled with 0.01 M PBS (flask 1). The column was eluted with 0.01 M PBS for 50 min (1 mL/min) and the effluent was collected in a 50 mL volumetric flask (flask 2). Aliquots of 1 mL from both flask 1 and flask 2 were measured on an HPGe detector (ORTEC). The percentage of recovery was calculated by dividing the counts in flask 2 by the counts in flask 1 then multiplied by 100.

[3] = Radiochemical stability of the radiopharmaceutical after labeling (radio-HPLC/ITLC-SG); type: physicochemical; settings: 24 h after labeling
Experimental: For radiolabeling, the lyophilized formulation was reconstituted with 1 mL of a 0.2 M phosphate buffer and 1 mL of ^99mTcO4Na (740–1110MBq). The reaction was incubated in a block heater for 15 min at 92 °C. The radiochemical purity was 98% as determined by radio-HPLC (Discovery C18; 5 μm particle size; L × I.D. 25 cm × 4.6 mm; linear gradient: 0.1% TFA/water (A) and 0.1% TFA/acetonitrile (B) flow rate of 1 mL/min. A-100% for 3 min, changed to A-50% over 10 min and maintained for 10 min, changed A-30% over 3 min and returned to A-100% over 4 min).
ITLC-SG (instant thin layer chromatography-silica gel) was also carried out for the assessment of ^99mTc-iFAP radiochemical purity. Three mobile phases were used, the 2-butanone phase was employed for the identification of free ^99mTcO4^− (Rf = 1), where ^99mTc-iFAP, ^99mTc-EDDA/tricine and ^99mTc-colloid remained in the origin (Rf = 0); 0.1 M sodium citrate (pH 5) identified free ^99mTcO4 (Rf = 1) and ^99mTc-EDDA/tricine coligands (Rf = 1), where ^99mTc-iFAP and ^99mTc-colloid remained in the origin (Rf = 0); finally, the third phase was used for the determination of ^99mTc-colloid (Rf = 0) and consisted of ammonium acetate-methanol (1:1 v/v) ( ^99mTcO4^−, ^99mTc-iFAP and ^99mTc-EDDA run with the solvent front; Rf = 1).

[4] = system: mice with induced Hep-G2 tumors; experiment: Biodistribution and biokinetic models in tumor-bearing mice; type: in vivo; settings: for Biodistribution, Blood / Biodistribution, Bone / Biodistribution, Heart / Biodistribution, Tumor / Biodistribution, Intestine / Biodistribution, Kidneys / Biodistribution, Liver / Biodistribution, Lung / Biodistribution, Muscle (left thigh) / Biodistribution, Pancreas / Biodistribution, Spleen / Biodistribution, Stomach: i.v.
Experimental: The biodistribution studies in Balb-c male mice were carried out in agreement with Official Mexican Norm 062-ZOO-1999. Hep-G2 tumors were induced in mice (n = 15) by subcutaneous injection (right thigh; positive control) of 1 × 10^6 cells suspended in 0.2 mL of phosphate-buffered saline. Killed Klebsiella pneumoniae bacteria (heated for 2 h at […] and verified for absence of growth after culturing), aseptically suspended in 0.2 mL of PBS (1 × 10^6 bacteria), were subcutaneously administered into the left thigh of mice in order to induce inflammation (negative control). After the tumor was visible, ^99mTc-iFAP (50 µL, 18 MBq, 7 nmol of iFAP) was administered intravenously into the tail of each mouse. Three mice were selected for micro-SPECT/CT imaging, whereas the rest were sacrificed to be used in the biodistribution study. The times of evaluation were 15 min, 30 min, 2 h and 24 h. After the mice were sacrificed, the blood and main organs were removed, weighted and their radioactivity measured using a […] detector, in order to calculate the percentage of the injected dose per gram of tissue (%ID/g) by using an initial standard volume (100% of the initial injected activity). Biokinetic models of the four main target tissues/organs (blood, tumor, liver and kidneys) were obtained by fitting ^99mTc-iFAP time-activity curves to functions with two or three exponential terms Equation (2):(2) A(t)=Ae^−at+Be^−bt+Ce^−ct

[5] = system: tumor microenvironment of different types of cancer; experiment: Preliminary clinical SPECT/CT imaging studies; type: in vivo; settings: preliminary clinical studies in progress, breast, lung, colorectal, gliomas, cervical cancer
[6] = system: nude mice with induced Hep-G2 lesions; experiment: Micro-SPECT/CT imaging and tumor SUV; settings: for tumor SUVmax, the mouse shown in Figure 7: one nude mouse; for tumor SUVmax, the mouse shown in Figure 7 / tumor SUVmax: right thigh; for tumor SUVmax: Hep-G2 tumor
Experimental: Hep-G2 tumors were induced in mice (n = 15) by subcutaneous injection (right thigh; positive control) of 1 × 10^6 cells suspended in 0.2 mL of phosphate-buffered saline. Killed Klebsiella pneumoniae bacteria (heated for 2 h at 1000 °C and verified for absence of growth after culturing), aseptically suspended in 0.2 mL of PBS (1 × 10^6 bacteria), were subcutaneously administered into the left thigh of mice in order to induce inflammation (negative control). After the tumor was visible, ^99mTc-iFAP (50 µL, 18 MBq, 7 nmol of iFAP) was administered intravenously into the tail of each mouse. Three mice were selected for micro-SPECT/CT imaging, whereas the rest were sacrificed to be used in the biodistribution study. […] After the mice were sacrificed, the blood and main organs were removed, weighted and their radioactivity measured using a Na(Tl) detector, in order to calculate the percentage of the injected dose per gram of tissue (%ID/g) by using an initial standard volume (100% of the initial injected activity). Biokinetic models of the four main target tissues/organs (blood, tumor, liver and kidneys) were obtained by fitting ^99mTc-iFAP time-activity curves to functions with two or three exponential terms Equation (2):(2) A(t)=Ae^−at+Be^−bt+Ce^−ct

[7] = system: healthy laboratory Balb-C mice; experiment: Adverse effects of the cold ligand; type: in vivo; settings: dose of 40 mg/kg

^99mTc-((R)-1-((6-hydrazinylnicotinoyl)-D-alanyl) pyrrolidin-2-yl) boronic acid [^99mTc-iFAP]
internalization rate in N30 cells [1]: rather low
cellular uptake in N30 compared to fibroblasts ([1]; human fibroblasts FAP negative control, p < 0.05, n = 6): increased
stability in fresh human serum ([2]; 30 min, 3 h and 24 h, 37 °C): remained stable
99mTc-colloid as activity retained in the column ([2]; from percentage of recovered activity, size-exclusion HPLC): 0.2%
transchelation of 99mTc to cysteine ([2]; human serum, 37 °C): does not occur
serum protein binding ([2]; human serum, 37 °C, 30 min): 0.3 ± 0.1%
serum protein binding ([2]; human serum, 37 °C, 3 h): 0.9 ± 0.2%
radiochemical stability in human serum ([2]; human serum, 37 °C, 24 h): > 95%
serum protein binding ([2]; human serum, 37 °C, 24 h): 2.1 ± 0.3%
radiochemical purity after 24 h of labeling [3]: greater than 97%
Biodistribution, Blood ([4]; 15 min): 2.07 ± 0.63 %ID/g
Biodistribution, Blood ([4]; 30 min): 1.02 ± 0.32 %ID/g
Biodistribution, Blood ([4]; 2 h): 0.33 ± 0.05 %ID/g
Biodistribution, Blood ([4]; 24 h): 0.01 ± 0.01 %ID/g
Biodistribution, Bone ([4]; 15 min): 0.20 ± 0.09 %ID/g
Biodistribution, Bone ([4]; 30 min): 0.14 ± 0.06 %ID/g
Biodistribution, Bone ([4]; 2 h): 0.13 ± 0.02 %ID/g
Biodistribution, Heart ([4]; 15 min): 1.75 ± 0.08 %ID/g
Biodistribution, Heart ([4]; 30 min): 0.88 ± 0.23 %ID/g
Biodistribution, Heart ([4]; 2 h): 0.19 ± 0.03 %ID/g
Biodistribution, Tumor ([4]; Hep-G2 tumor, 15 min): 9.87 ± 1.94 %ID/g
Biodistribution, Tumor ([4]; Hep-G2 tumor, 30 min): 7.05 ± 1.13 %ID/g
Biodistribution, Tumor ([4]; Hep-G2 tumor, 2 h): 5.18 ± 0.82 %ID/g
Biodistribution, Tumor ([4]; Hep-G2 tumor, 24 h): 2.37 ± 0.26 %ID/g
tumor fast elimination constant (λeff) ([4]; Hep-G2 tumor, biokinetic model): 0.41 h⁻¹
tumor slow elimination constant (λeff) ([4]; Hep-G2 tumor, biokinetic model): 0.12 h⁻¹
Biodistribution, Intestine ([4]; 15 min): 1.42 ± 0.74 %ID/g
Biodistribution, Intestine ([4]; 30 min): 0.93 ± 0.14 %ID/g
Biodistribution, Intestine ([4]; 2 h): 0.22 ± 0.10 %ID/g
Biodistribution, Kidneys ([4]; 15 min): 13.85 ± 2.27 %ID/g
Biodistribution, Kidneys ([4]; 30 min): 11.18 ± 1.54 %ID/g
Biodistribution, Kidneys ([4]; 2 h): 7.46 ± 1.02 %ID/g
Biodistribution, Kidneys ([4]; 24 h): 1.89 ± 0.53 %ID/g
Biodistribution, Liver ([4]; 15 min): 2.78 ± 0.42 %ID/g
Biodistribution, Liver ([4]; 30 min): 2.14 ± 0.51 %ID/g
Biodistribution, Liver ([4]; 2 h): 1.05 ± 0.29 %ID/g
Biodistribution, Liver ([4]; 24 h): 0.05 ± 0.03 %ID/g
Biodistribution, Lung ([4]; 15 min): 1.11 ± 0.51 %ID/g
Biodistribution, Lung ([4]; 30 min): 0.65 ± 0.19 %ID/g
Biodistribution, Lung ([4]; 2 h): 0.02 ± 0.01 %ID/g
Biodistribution, Muscle (left thigh) ([4]; 15 min): 0.39 ± 0.15 %ID/g
Biodistribution, Muscle (left thigh) ([4]; 30 min): 0.31 ± 0.11 %ID/g
Biodistribution, Muscle (left thigh) ([4]; 2 h): 0.18 ± 0.06 %ID/g
Biodistribution, Pancreas ([4]; 15 min): 0.64 ± 0.10 %ID/g
Biodistribution, Pancreas ([4]; 30 min): 0.31 ± 0.12 %ID/g
Biodistribution, Pancreas ([4]; 2 h): 0.12 ± 0.04 %ID/g
Biodistribution, Spleen ([4]; 15 min): 1.07 ± 0.17 %ID/g
Biodistribution, Spleen ([4]; 30 min): 0.82 ± 0.04 %ID/g
Biodistribution, Spleen ([4]; 2 h): 0.15 ± 0.05 %ID/g
Biodistribution, Stomach ([4]; 15 min): 0.71 ± 0.08 %ID/g
Biodistribution, Stomach ([4]; 30 min): 0.39 ± 0.12 %ID/g
Biodistribution, Stomach ([4]; 2 h): 0.25 ± 0.03 %ID/g
fraction of radiotracer eliminated from blood, fast phase ([4]; blood, biokinetic model, fast): 88.6%
fraction of radiotracer eliminated from blood, slow phase ([4]; blood, biokinetic model, slow): 11.4%
blood half-life (slow) ([4]; blood, t1/2 = ln2/0.27): 154 min
blood half-life (fast) ([4]; blood, t1/2 = ln2/2.93): 14.4 min
kidney half-life, second phase ([4]; kidneys, t1/2 = ln2/1.54): 27 min
kidney half-life (fast) ([4]; kidneys, t1/2 = ln2/2.71): 15.6 min
fraction of activity eliminated from kidneys, fast phase ([4]; kidneys, triexponential model, fast): 49.4%
fraction of activity eliminated from kidneys, second phase ([4]; kidneys, triexponential model, second phase): 6.3%
fraction of activity eliminated from kidneys, slow phase ([4]; kidneys, triexponential model, slow): 44.3%
sensitivity to detect the tumor microenvironment [5]: high sensitivity
tumor SUVmax, the mouse shown in Figure 7 ([6]; 30 min): 5.6
tumor SUVmax ([6]; 30 min after administration): 5.0 ± 1.2
tumor SUVmax, the mouse shown in Figure 7 ([6]; 24 h): 2.4
tumor SUVmax ([6]; 24 h after administration): 2.7 ± 0.6
radiotracer uptake in left thigh with inflammation induced by killed bacteria (negative control) ([6]; micro-SPECT/CT, left thigh): no radiotracer uptake was observed

C[C@@H](NC(=O)c1ccc(NN)nc1)C(=O)N1CCC[C@H]1B(O)O [iFAP, ((R)-1-((6-hydrazinylnicotinoyl)-D-alanyl)pyrrolidin-2-yl) boronic acid]
adverse effects [7]: did not show adverse effects
